# Where “and” joins values, the source holds several entries; their conditions need not be identical. Equal entries are not always repeated.
# Legend:
# [1] = Ethanol hematic concentrations and pharmacokinetics in volunteers given ethanol orally after FDP infusion (cross-over); type: in vivo, male volunteers (human)
# Description: (§1) Male volunteers (ages 19 to 46, 73 kg average weight) in good conditions of health as ascertained by objective test and hematologic and biochemical analyses, participated in the investigation. None of the subjects had used drugs during the week before the study nor in the course of the study.
# (§2) Each subject was given, in two sittings, with one wash-out week interval between sittings, ethanol (control) and ethanol with added fructose-1,6-diphosphate (FDP) according to an experimental cross-over design. After one night of fasting, each patient received ethanol orally, in the morning, at a rate of 0.5 g/kg body weight, as a 30% analytical grade ethyl alcohol solution in effervescent mineral water. FDP was administered at the rate of 250 mg/kg of fructose-1,6-diphosphate sodium hydrate salt in an intravenous infusion during 20 minutes (2.5 ml/kg).
# (§3) From the individual data obtained in each sitting and for each subject, the values of the following parameters were calculated: maximum concentration (Cmax), time for attaining maximum concentration (Tmax), mean life of absorption (Ab t1/2), mean life of elimination (El t1/2) and area under curve zero to infinity (AUC). The ethanol and acetaldehyde concentrations were measured in the two sittings of study and the values of the pharmacokinetic parameters given above were compared by the Student's t-test for paired data, with the exception of the maximum concentration times of ethanol which were compared by the Wilcoxon test. The level of statistical significances was set at 5%.
# [2] = Acetaldehyde hematic concentrations in volunteers given ethanol orally after FDP infusion (cross-over); type: in vivo, male volunteers (human); settings: Student's t test for coupled data
# Description: as §1
# as §2, with “FDP was administered at the rate of 250 mg/kg of fructose-1,6-diphosphate sodium hydrate salt in an intravenous infusion during 20 minutes (2.5 ml/kg).” left out
# as §3, with “The level of statistical significances was set at 5%.” left out
# [3] = test system: patients in a state of acute drunkenness; experiment: Vital signals (heart rate, arterial pressure) in patients with acute drunkenness; type: in vivo, patients (human)
# Method: (§4) 28 patients were selected, 26 males and 2 females, aged 17 to 68, which had been taken to a first aid post for traumas suffered during a state of acute drunkenness (18 cases) or to phenomena resulting from that state of drunkenness (10 cases). Of the patients under observation, 18 were chronic alcoholics and 10 were subjects with no alcoholism story (Table 4).
# (§5) The patients then received, at random, one rapid infusion of 15 g FDP as a 10% sodium salt solution of FDP, or a 5% (150 ml) glucose solution. 15 minutes after the completion of infusion, evaluations were repeated.
# (§6) Following the first anamnestic and diagnostic checks, measurements were taken of the arterial pressure and the heart rate. Then, evaluation was made, in basal conditions, of the psychic and behavioral state (psychomotor excitement, vigilance, time-space orientation and lucidity) and the neurological state (equilibrium, forefinger-nose test, palpebral, corneal and pain reflexes). For the semiquantitative evaluation of the selected parameters, severity scales with arbitrary ratings were adopted. Evaluation of lucidity was made by using the figure repeating test.
# (§7) The data obtained for each patient were compared with those obtained before the treatment by means of the mixed pattern variance analysis followed, in case of gross significance, by the Tukey's multiple comparison test. A 5% level was used as the minimum level of statistical significance.
# [4] = test system: patients in a state of acute drunkenness; experiment: Psychic and behavioural conditions scores in patients with acute drunkenness; type: in vivo, patients (human)
# Method: as §4, §5, §6, §7
# [5] = test system: patients in a state of acute drunkenness; experiment: Impairment scores in neurologic tests in patients with acute drunkenness; type: in vivo, patients (human)
# Method: as §4, §5, §6, §7
# [6] = test system: chronic alcoholics at a stage of detoxication; experiment: Psychiatric symptoms (psychic and behavioural state scores) in chronic alcoholics at a stage of detoxication; type: in vivo, patients (human); settings: for Motor derangement score: FDP group (20 g/day i.v. days II-VII plus nutrition), basal 1.4; for Motor derangement score / Behavioural disorders score / Conscience disorders score: p < 0.01 vs basal; for Behavioural disorders score / Conscience disorders score: FDP group; for Behavioural disorders score: basal 1.3; for Conscience disorders score: basal 1.5
# Method: (§8) This study left out patients more than 70 years old or patients suffering from severe renal or cardiovascular impairment, diabetes or other pathologies (epilepsy, delirium […] could prevent evaluation of the investigated treatment. During study, which was conducted single blind, two therapeutic procedures were compared for a period of 8 days allotted as follows: one day (I) for selection and basic determinations at the time of alcohol withdrawal; six days (II-VII) for treatment; one day (VIII) for follow-up. […] Some of the patients received, days II to IV, a total parenteral nutrition (NTP) followed by hypercaloric diet during the remaining three days. During the study, no further drugs were administered except those which would be required by concomitant pathologies and which could not interfere with the nutritional state. In the patients imperatively requiring a control of psychomotor derangement during the abstinence period, chlordimethyldiazepam (2 mg/iv) was used and the daily doses thereof were recorded. On the first day the history, particularly in respect of alcoholism, was obtained. On days I, V and VIII a thorough examination of the patient's neurological and psychiatric conditions was performed. The psychic areas were evaluated by using simplified rating scales for the psychomotor derangement and the behaviour and consciousness disorders present in the alcohol withdrawal period. For the neurological evaluation, there were taken into consideration the reflexes, the exteroceptive and propioceptive sensitivities and the presence of ataxia, tremors and cramps, and semiquantitative ratings of 0 (no symptom or normal picture) to 3 (high severity symptom or no response) were assigned.
# [7] = test system: chronic alcoholics at a stage of detoxication; experiment: Neurological symptoms (impairment scores in neurological tests) in chronic alcoholics at a stage of detoxication; type: in vivo, patients (human); settings: for Reflexes impairment score: basal 1.6, control 1.2; for Ataxia-tremors cramps impairment score: basal 1.7; for Sensitivity impairment score: basal 3.0
# Method: as §8
# [8] = Tolerability in patients with acute drunkenness; settings: human, in vivo
# Method: as §4, §5
# [9] = no test described; cited from earlier work
structure (smiles),measurement,setting,value
"O=C(COP(=O)(O)O)[C@@H](O)[C@H](O)[C@H](O)COP(=O)(O)O [FDP, fructose-1,6-diphosphate]","Ethanol AUC in the 0-90 min range, lower following FDP","[1]; 0-90 min, vs control (FIG. 1)",40%
same,Percent difference of ethanol concentration after FDP with respect to control (lower),[1]; 15 min,70%
same,Percent difference of ethanol concentration after FDP with respect to control (lower),[1]; 30 min,64%
same,Percent difference of ethanol concentration after FDP with respect to control (lower),[1]; 60 min,31%
same,"Ethanol AUC (zero to infinity), average","[1]; FDP session, Table 2, n = 8, SD 976, control 2229",2695 mmol·min/L
same,"Ethanol AUC (zero to infinity), average","[1]; FDP sitting, control 2695",2229 mmol·min/L
same,Significance of the difference in ethanol AUC vs control,"[1]; Student's t test, paired",no significant differences
same,Significance of the difference in ethanol maximum concentration vs control,"[1]; Student's t test, paired",the observed difference did not attain statistical significance
same,Difference in the alcohol absorption rate,"[1]; from absorption half-life vs control, p<0.05",66%
same,"Time for attaining maximum ethanol concentration, longer than control",[1]; p<0.05 vs control sitting,120%
same,"Significance of acetaldehyde concentration differences, FDP vs control",[2],no statistically significant differences at any of the considered times and ns
same,"Arterial diastolic pressure, final","[3]; 15 min after infusion of 15 g FDP, basal 67.9 (text 68), p < 0.05 vs basal, glucose 69.6 to 69.6",75.3 mm Hg and 75 mm Hg
same,"Cardiac frequency, final","[3]; 15 min after infusion of 15 g FDP, basal 103.1, p < 0.01 vs basal, glucose 101.7 to 96.9",94.4 beats/minute
same,"Arterial sistolic pressure, final","[3]; 15 min after infusion of 15 g FDP, basal 113.2, glucose 113.1 to 110.8",116.5 mm Hg
same,Blood pressure and heart rate in subjects with basal hypertension accompanied by tachycardia,[3]; after FDP,permits the normal values of both blood pressure and heart rate to be restored
same,"Heart rate, final","[3]; after FDP, from 103 basal, significant",94 pulsations/minute
same,"Motor derangement score, final","[4]; 15 min after infusion of 15 g FDP, basal 1.1, p < 0.01 vs basal, glucose 1.0 to 0.7",0.3
same,"Vigilance impairment score, final","[4]; 15 min after infusion of 15 g FDP, basal 1.1, p < 0.01 vs basal, glucose 1.2 to 1.0 (p < 0.05 vs final FDP)",0.5
same,"Lucidity level score, final","[4]; 15 min after infusion of 15 g FDP, basal 1.6, p < 0.01 vs basal, glucose 1.5 to 2.5",3.6
same,"Orientation impairment score, final","[4]; 15 min after infusion of 15 g FDP, basal 4.5, p < 0.01 vs basal, glucose 4.3 to 3.4 (p < 0.05 vs final FDP)",1.7
same,"Comparison of treatments, final values for vigilance and orientation",[4]; FDP vs glucose solution,significant difference between FDP and glucose solution
same,State of psychomotor disorder,[4]; after FDP,tends towards complete disappearance
same,"Vigilance, orientation and mental lucidity",[4]; after FDP,"notably improved, with the tendency being towards return to normal levels"
same,"Psychic and behavioural state, all parameters",[4]; after FDP vs basal,all of the parameters show to be positively and significantly influenced
same,"Corneal reflex impairment score, final","[5]; 15 min after infusion of 15 g FDP, basal 0.1, glucose 0.1 to 0.1",0.0
same,"Palpebral reflex impairment score, final","[5]; 15 min after infusion of 15 g FDP, basal 0.4, p < 0.05 vs basal, glucose 0.5 to 0.1",0.0
same,"Pain reflex impairment score, final","[5]; 15 min after infusion of 15 g FDP, basal 0.9, p < 0.05 vs basal, glucose 0.5 to 0.2",0.3
same,"""Forefinger-nose"" test impairment score, final","[5]; 15 min after infusion of 15 g FDP, basal 1.3, p < 0.01 vs basal, glucose 0.9 to 0.7",0.4
same,"Equilibrium impairment score, final","[5]; 15 min after infusion of 15 g FDP, basal 1.6, p < 0.01 vs basal, glucose 1.1 to 0.9",1.1
same,"Postural equilibrium, forefinger-nose test, palpebral and pain reflexes",[5]; after FDP,significantly improved
same,Corneal reflex in patients with basal impairment,"[5]; at the end of FDP treatment, all the patients",normal state in this respect at the end of FDP treatment
same,Motor derangement score,"[6]; day V, control 0.8",0.6
same,Motor derangement score,"[6]; day VIII, control 0.5",0.4
same,Behavioural disorders score,"[6]; day V, control 0.7",0.4
same,Conscience disorders score,"[6]; day V, control 0.6",0.3
same,Behavioural disorders score,"[6]; day VIII, control 0.5",0.3
same,Conscience disorders score,"[6]; day VIII, control 0.5",0.2
same,Consumption of chlordimethyldiazepam,[6]; FDP vs no FDP,higher consumption of chlordimethyldiazepam required by patients not having get FDP
same,"Psychiatric symptoms, improvement","[6]; day V, FDP treated patients only, p<0.01",improvement of all of the considered symptoms
same,Consciousness disorders,"[6]; eighth day, FDP treated patients, not in control group",the consciousness disorders did disappear in FDP treated patients
same,Psychiatric symptomatology connected with the alcohol withdrawal,[6]; patients treated with FDP,disappeared after only five days of treatment
same,Reflexes impairment score,"[7]; FDP group (20 g/day i.v. days II-VII plus nutrition), day V",1.2
same,Ataxia-tremors cramps impairment score,"[7]; FDP group, day V, p < 0.01 vs basal, control 0.9",1.0
same,Sensitivity impairment score,"[7]; FDP group, day V, p < 0.01 vs basal, control 2.4",2.1
same,Reflexes impairment score,"[7]; FDP group, day VIII, p < 0.01 vs basal",1.0
same,Ataxia-tremors cramps impairment score,"[7]; FDP group, day VIII, p < 0.01 vs basal, control 0.8",0.5
same,Sensitivity impairment score,"[7]; FDP group, day VIII, p < 0.01 vs basal, control 1.7",1.8
same,"Reflexes, recovery","[7]; day VIII, only in FDP treated group",the reflexes recovered to normal
same,"Remaining neurological symptomatology, FDP vs control",[7]; evolutive tendency in the course of the study,does not evidence any difference betwen the two treatments
same,Tolerability,[8],good tolerability
same,Elimination half-life of the FDP,[9],less than 15 minutes
